Test results reported in ChEMBL document CHEMBL4184323, “Structure-Guided Design, Synthesis, and Characterization of Next-Generation Meprin β Inhibitors” (J Med Chem, 2018).

Key:
[1] = molecular target: MMP2 (Homo sapiens, UniProt P08253); assay: Inhibition of human MMP2 assessed as residual activity using Mca-PLGL-(DapDnp)-AR-NH2 as substrate at 200 uM by fluorescence assay relative to control; conditions: human MMP2 enzyme, probe Mca-PLGL-(DapDnp)-AR-NH2, read-out: Activity
[2] = molecular target: MMP9 (Homo sapiens, UniProt P14780); assay: Inhibition of human MMP9 assessed as residual activity using Mca-PLGL-(DapDnp)-AR-NH2 as substrate at 200 uM by fluorescence assay relative to control; conditions: human MMP9 enzyme, probe Mca-PLGL-(DapDnp)-AR-NH2, read-out: Activity
Sequence of MMP9 (P14780 whole entry): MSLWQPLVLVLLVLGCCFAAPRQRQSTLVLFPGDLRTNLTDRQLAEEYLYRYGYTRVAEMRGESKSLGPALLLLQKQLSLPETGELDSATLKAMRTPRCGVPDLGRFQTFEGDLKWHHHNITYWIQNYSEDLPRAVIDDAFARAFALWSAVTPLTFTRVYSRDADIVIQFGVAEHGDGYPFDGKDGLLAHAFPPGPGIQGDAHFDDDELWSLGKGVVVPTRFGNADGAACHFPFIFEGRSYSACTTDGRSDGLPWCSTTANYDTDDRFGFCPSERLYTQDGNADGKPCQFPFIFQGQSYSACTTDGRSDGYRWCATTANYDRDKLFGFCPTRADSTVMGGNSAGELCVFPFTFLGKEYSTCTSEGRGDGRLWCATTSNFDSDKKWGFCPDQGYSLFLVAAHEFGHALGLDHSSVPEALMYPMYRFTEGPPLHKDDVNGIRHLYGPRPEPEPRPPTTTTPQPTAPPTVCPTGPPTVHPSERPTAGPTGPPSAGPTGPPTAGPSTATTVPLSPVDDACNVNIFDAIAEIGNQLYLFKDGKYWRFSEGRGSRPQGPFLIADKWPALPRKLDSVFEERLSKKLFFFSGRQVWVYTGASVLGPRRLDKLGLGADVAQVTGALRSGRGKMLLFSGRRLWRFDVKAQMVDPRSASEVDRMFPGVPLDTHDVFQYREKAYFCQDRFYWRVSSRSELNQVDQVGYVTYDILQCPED

[3] = molecular target: MMP13 (Homo sapiens, UniProt P45452); assay: Inhibition of human MMP13 assessed as residual activity using Mca-PLGL-(DapDnp)-AR-NH2 as substrate at 200 uM by fluorescence assay relative to control; conditions: human MMP13 enzyme, probe Mca-PLGL-(DapDnp)-AR-NH2, read-out: Activity
[4] = molecular target: T1, ADAM10 (Homo sapiens, UniProt O14672); assay: Inhibition of human ADAM10 assessed as residual activity using Abz-LANAVRSSSR-(DapDnp)-AR-NH2 as substrate at 200 uM by fluorescence assay relative to control; conditions: human ADAM10 enzyme, probe Abz-LANAVRSSSR-(DapDnp)-AR-NH2, read-out: Activity
T1 sequence (O14672 whole entry): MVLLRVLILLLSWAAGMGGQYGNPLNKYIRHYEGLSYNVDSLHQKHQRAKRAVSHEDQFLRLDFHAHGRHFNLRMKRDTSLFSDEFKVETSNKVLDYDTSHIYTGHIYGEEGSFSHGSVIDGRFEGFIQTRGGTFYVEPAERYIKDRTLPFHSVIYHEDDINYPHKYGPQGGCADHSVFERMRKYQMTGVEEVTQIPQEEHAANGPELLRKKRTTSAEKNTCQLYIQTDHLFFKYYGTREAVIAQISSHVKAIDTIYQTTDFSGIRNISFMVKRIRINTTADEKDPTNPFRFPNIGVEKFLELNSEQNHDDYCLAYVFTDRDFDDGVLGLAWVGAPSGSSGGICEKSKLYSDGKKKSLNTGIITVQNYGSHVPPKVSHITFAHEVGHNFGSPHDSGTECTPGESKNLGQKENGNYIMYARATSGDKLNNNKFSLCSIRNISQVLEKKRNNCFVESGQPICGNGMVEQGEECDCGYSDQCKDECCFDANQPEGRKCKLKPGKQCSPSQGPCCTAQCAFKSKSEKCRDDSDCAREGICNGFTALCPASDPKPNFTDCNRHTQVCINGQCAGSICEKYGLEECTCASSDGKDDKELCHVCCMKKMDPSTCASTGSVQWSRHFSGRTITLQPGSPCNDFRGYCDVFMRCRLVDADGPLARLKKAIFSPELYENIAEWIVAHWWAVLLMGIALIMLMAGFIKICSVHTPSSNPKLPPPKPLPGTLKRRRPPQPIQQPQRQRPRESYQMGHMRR

[5] = molecular target: ADAM17 (Homo sapiens, UniProt P78536); assay: Inhibition of human ADAM17 assessed as residual activity using Abz-LANAVRSSSR-(DapDnp)-AR-NH2 as substrate at 200 uM by fluorescence assay relative to control; conditions: human ADAM17 enzyme, probe Abz-LANAVRSSSR-(DapDnp)-AR-NH2, read-out: Activity
Sequence of ADAM17 (P78536 whole entry): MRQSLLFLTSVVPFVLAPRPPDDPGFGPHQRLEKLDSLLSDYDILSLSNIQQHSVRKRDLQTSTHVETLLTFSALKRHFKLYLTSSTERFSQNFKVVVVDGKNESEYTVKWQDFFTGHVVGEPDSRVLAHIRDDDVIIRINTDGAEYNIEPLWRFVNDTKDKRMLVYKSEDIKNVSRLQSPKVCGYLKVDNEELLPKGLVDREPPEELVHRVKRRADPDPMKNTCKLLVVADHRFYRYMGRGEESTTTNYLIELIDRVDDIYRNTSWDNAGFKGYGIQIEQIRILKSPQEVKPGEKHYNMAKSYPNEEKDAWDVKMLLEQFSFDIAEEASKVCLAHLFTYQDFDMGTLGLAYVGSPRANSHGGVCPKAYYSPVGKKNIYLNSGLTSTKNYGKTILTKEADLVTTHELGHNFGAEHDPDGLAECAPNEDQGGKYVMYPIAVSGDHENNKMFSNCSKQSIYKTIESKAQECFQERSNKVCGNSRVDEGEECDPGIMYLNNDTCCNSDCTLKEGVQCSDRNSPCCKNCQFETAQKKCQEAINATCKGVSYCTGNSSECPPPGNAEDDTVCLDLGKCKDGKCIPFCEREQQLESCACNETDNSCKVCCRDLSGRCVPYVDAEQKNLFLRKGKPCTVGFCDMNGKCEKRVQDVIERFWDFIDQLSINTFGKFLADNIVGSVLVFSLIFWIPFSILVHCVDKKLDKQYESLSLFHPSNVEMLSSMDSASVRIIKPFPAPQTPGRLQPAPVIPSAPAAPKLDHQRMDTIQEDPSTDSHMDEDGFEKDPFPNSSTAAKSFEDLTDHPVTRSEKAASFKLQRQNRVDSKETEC

[6] = molecular target: CYP3A4 (Homo sapiens, UniProt P08684); assay: Inhibition of recombinant human CYP3A4 expressed in baculosomes assessed as residual activity at 25 uM using BOMCC substrate by fluorescence assay relative to control; type: ADME; conditions: probe BOMCC, read-out: Activity
Sequence of CYP3A4 (P08684 whole entry): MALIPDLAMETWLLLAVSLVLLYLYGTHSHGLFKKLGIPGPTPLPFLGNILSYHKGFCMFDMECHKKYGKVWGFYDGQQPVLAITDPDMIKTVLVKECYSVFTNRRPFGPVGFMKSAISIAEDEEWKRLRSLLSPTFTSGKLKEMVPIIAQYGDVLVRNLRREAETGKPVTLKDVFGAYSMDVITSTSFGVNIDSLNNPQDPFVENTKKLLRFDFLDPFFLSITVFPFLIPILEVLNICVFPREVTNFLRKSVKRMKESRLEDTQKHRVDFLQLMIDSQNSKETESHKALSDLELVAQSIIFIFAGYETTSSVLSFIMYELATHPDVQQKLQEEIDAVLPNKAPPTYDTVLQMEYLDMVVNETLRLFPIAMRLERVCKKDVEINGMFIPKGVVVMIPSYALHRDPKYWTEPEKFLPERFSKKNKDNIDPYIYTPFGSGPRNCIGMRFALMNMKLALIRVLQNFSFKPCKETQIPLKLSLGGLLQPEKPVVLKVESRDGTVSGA

[7] = molecular target: CYP2C9 (Homo sapiens, UniProt P11712); assay: Inhibition of recombinant human CYP2C9 expressed in baculosomes assessed as residual activity at 25 uM using BOMCC substrate by fluorescence assay relative to control; type: ADME; conditions: probe BOMCC, read-out: Activity
Sequence of CYP2C9 (P11712 whole entry): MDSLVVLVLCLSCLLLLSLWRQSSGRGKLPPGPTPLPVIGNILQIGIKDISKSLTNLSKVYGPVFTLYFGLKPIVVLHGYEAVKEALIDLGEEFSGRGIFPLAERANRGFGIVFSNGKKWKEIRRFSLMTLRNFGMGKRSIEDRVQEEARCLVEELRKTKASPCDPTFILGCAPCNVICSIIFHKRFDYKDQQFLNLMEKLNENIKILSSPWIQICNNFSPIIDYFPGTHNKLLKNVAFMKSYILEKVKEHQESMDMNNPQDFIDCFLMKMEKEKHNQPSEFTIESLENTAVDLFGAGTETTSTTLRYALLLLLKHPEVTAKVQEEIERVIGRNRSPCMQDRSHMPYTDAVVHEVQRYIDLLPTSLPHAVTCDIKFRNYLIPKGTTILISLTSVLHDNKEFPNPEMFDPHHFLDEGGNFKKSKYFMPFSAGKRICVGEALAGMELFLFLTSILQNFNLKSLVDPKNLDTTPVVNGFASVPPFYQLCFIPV

[8] = system: SH-SY5Y; assay: Cytotoxicity in human SH-SY5Y cells assessed as cell viability at 100 uM after 24 hrs by CytoTox-ONE-based assay relative to control; type: functional; conditions: read-out: Activity
[9] = system: HepG2; assay: Cytotoxicity in human HepG2 cells assessed as cell viability at 100 uM after 24 hrs by CytoTox-ONE-based assay relative to control; type: functional; conditions: HepG2, 24 h, read-out: Activity
[10] = species: Homo sapiens; assay: Selectivity ratio of IC50 for recombinant human meprin alpha expressed in insect cells to IC50 for recombinant human meprin beta expressed in yeast
[11] = molecular target: T2, Meprin A subunit beta (Homo sapiens, UniProt Q16820)
T2 sequence (Q16820 whole entry): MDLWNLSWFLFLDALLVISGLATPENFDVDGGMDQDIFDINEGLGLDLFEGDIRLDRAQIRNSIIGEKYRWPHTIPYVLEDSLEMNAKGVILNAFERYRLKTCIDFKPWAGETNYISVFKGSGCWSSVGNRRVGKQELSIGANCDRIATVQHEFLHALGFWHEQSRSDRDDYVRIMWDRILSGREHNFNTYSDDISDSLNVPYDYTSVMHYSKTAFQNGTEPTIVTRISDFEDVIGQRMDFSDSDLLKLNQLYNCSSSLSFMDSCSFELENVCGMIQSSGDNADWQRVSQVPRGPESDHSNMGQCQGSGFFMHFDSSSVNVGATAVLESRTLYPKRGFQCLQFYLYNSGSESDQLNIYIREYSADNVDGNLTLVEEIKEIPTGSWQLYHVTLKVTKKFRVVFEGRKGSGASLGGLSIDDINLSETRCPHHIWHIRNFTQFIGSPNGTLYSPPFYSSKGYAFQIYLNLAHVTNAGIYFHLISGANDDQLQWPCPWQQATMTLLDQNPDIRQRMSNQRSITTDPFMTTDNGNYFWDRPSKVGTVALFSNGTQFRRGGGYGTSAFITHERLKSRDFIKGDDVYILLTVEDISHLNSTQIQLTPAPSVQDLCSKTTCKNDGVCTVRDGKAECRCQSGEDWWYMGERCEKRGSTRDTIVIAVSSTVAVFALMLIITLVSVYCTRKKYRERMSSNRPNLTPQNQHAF
Description: Inhibition of recombinant human meprin beta expressed in yeast using Abz-YVAEAPK(Dnp)G-OH as substrate by fluorescence assay

[12] = molecular target: T3, BMP1 (Homo sapiens, UniProt P13497); assay: Inhibition of human BMP1 expressed in Escherichia coli assessed as residual activity using Abz-YVADAPK(Dnp)G-OH as substrate at 200 uM by fluorescence assay relative to control; conditions: probe Abz-YVADAPK(Dnp)G-OH, read-out: Activity
T3 sequence (P13497 whole entry): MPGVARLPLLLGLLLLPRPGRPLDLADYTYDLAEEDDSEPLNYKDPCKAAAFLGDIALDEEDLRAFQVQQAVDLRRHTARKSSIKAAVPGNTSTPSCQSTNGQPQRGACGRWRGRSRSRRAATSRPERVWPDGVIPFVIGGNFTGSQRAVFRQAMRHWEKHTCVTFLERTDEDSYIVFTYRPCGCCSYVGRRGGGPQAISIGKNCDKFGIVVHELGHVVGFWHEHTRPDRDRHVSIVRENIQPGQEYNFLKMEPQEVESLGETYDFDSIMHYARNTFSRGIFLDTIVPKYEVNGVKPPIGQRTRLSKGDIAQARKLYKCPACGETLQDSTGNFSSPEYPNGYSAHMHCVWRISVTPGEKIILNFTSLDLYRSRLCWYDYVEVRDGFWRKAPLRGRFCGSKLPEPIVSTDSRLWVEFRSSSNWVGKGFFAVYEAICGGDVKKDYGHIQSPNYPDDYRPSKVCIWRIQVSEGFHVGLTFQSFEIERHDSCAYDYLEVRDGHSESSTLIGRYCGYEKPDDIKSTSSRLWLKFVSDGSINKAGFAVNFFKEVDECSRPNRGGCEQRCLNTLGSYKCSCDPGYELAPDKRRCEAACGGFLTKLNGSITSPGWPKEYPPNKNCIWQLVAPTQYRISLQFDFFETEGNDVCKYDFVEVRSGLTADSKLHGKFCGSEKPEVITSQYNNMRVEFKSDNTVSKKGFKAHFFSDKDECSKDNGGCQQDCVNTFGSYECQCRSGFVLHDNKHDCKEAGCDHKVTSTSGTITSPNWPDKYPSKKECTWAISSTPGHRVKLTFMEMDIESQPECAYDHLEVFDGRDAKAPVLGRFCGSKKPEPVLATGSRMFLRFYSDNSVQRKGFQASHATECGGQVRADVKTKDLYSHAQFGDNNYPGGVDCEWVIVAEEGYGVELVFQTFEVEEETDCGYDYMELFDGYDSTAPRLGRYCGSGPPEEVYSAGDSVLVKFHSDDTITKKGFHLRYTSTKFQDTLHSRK

[13] = Drug absorption in Sprague-Dawley rat at 10 mg/kg, po by LC-MS analysis; type: ADME, organism-based; conditions: in vivo, read-out: Fabs
[14] = Cmax in Sprague-Dawley rat at 10 mg/kg, po by LC-MS analysis; type: ADME, organism-based; parameters: dose 10 mg/kg, route oral; conditions: in vivo
[15] = Tmax in Sprague-Dawley rat at 10 mg/kg, po by LC-MS analysis; type: ADME, organism-based; conditions: in vivo
[16] = system: Rattus norvegicus; assay: Volume of distribution in Sprague-Dawley rat at 10 mg/kg, po by LC-MS analysis; type: ADME, organism-based; conditions: in vivo
[17] = Drug absorption in Sprague-Dawley rat at 10 mg/kg, ip by LC-MS analysis; type: ADME, organism-based; conditions: in vivo, read-out: Fabs
[18] = Cmax in Sprague-Dawley rat at 10 mg/kg, ip by LC-MS analysis; type: ADME, organism-based; parameters: dose 10 mg/kg, route intraperitoneal; conditions: in vivo
[19] = Tmax in Sprague-Dawley rat at 10 mg/kg, ip by LC-MS analysis; type: ADME, organism-based; conditions: in vivo
[20] = Half life in Sprague-Dawley rat at 6 mg/kg, iv by LC-MS analysis; type: ADME, organism-based; conditions: in vivo
[21] = Clearance in Sprague-Dawley rat at 6 mg/kg, iv by LC-MS analysis; type: ADME, organism-based; conditions: in vivo
[22] = Volume of distribution at steady state in Sprague-Dawley rat at 6 mg/kg, iv by LC-MS analysis; type: ADME, organism-based; conditions: in vivo, read-out: Vdss
[23] = system: SH-SY5Y; assay: Cytotoxicity in human SH-SY5Y cells assessed as cell viability at 30 uM after 24 hrs by CytoTox-ONE-based assay relative to control; type: functional; conditions: read-out: Activity
[24] = system: HepG2; assay: Cytotoxicity in human HepG2 cells assessed as cell viability at 30 uM after 24 hrs by CytoTox-ONE-based assay relative to control; type: functional; conditions: HepG2, 24 h, read-out: Activity

Sequence of MMP2 (P08253 whole entry): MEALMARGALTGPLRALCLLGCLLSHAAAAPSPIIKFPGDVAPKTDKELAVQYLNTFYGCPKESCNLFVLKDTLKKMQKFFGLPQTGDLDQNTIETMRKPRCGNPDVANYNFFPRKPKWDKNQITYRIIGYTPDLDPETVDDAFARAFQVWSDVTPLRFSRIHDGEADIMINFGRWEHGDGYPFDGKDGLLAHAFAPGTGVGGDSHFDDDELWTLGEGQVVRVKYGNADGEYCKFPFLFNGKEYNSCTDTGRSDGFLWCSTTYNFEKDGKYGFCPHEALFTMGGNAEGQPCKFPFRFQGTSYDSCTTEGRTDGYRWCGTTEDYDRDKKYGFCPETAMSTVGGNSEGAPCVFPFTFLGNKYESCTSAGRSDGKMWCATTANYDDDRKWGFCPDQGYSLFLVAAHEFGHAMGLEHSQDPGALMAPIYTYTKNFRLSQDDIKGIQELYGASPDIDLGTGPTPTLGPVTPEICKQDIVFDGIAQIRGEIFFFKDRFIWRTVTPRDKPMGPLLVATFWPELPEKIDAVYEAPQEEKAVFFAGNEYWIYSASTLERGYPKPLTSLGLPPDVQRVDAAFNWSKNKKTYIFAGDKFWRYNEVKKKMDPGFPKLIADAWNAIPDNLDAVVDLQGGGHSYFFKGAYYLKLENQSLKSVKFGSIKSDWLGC

SMILES	activity at 200 µM [1] [%]	activity at 200 µM [2] [%]	activity at 200 µM [3] [%]	activity at 200 µM [4] [%]	activity at 200 µM [5] [%]	activity at 25 µM [6] [%]	activity at 25 µM [7] [%]	IC50 [11] [nM]	further results
COc1ccc(CN(CC(=O)NO)Cc2cccc(C(=O)O)c2)cc1	68	85	94	87	60	80	102	77	viability at 100 µM [8]: 87%; viability at 100 µM [9]: 100%; Ratio IC50 [10]: 40
O=C(CN(Cc1ccc(Cl)c(O)c1F)Cc1ccc(Cl)c(O)c1F)NO	41	81	93	97	82	76	68		activity at 200 µM [12]: 50%; Fa [13]: 9%; Cmax [14]: 810 ng/mL; Tmax [15]: 15 min; Vd [16]: 0.058 L; Fa [17]: 84%; Cmax [18]: 10900 ng/mL; Tmax [19]: 10.2 min; half-life [20]: 114 min; clearance [21]: 21 mL/min/kg; Vd [22]: 0.33 L/kg; viability at 30 µM [23]: 93%; viability at 30 µM [24]: 101%
O=C(CN(Cc1ccc(Cl)cc1)Cc1cccc(C(=O)O)c1)NO	69	88	78	95	57	79	77		viability at 30 µM [23]: 97%; viability at 30 µM [24]: 104%
O=C(CN(Cc1ccc(F)c(O)c1F)Cc1ccc(F)c(O)c1F)NO	67	94	102	99	92	87	101		activity at 200 µM [12]: 34%; Fa [13]: 5%; Cmax [14]: 1080 ng/mL; Tmax [15]: 7.8 min; Vd [16]: 0.045 L; half-life [20]: 66 min; clearance [21]: 21.8 mL/min/kg; Vd [22]: 0.41 L/kg; viability at 30 µM [23]: 92%; viability at 30 µM [24]: 99%
Cc1ccc(CN(CC(=O)NO)Cc2cccc(C(=O)O)c2)cc1								386	
COc1ccc(CN(CC(=O)NO)Cc2cccc(C(=O)O)c2)cc1F								375	
COc1c(Cl)ccc(CN(CC(=O)NO)Cc2ccc(Cl)c(OC)c2F)c1F								12800	
COc1ccc(S(=O)(=O)N(CC(=O)NO)Cc2cccc(C(=O)O)c2)cc1	< 1	2	< 1	< 1	< 1				
O=C(CN(Cc1ccc(-c2ccccc2)cc1)Cc1cccc(C(=O)O)c1)NO								1280	
CCCOc1cccc(CN(CC(=O)NO)Cc2cccc(C(=O)O)c2)c1								2250	
COc1cc(F)c(CN(CC(=O)NO)Cc2cccc(C(=O)O)c2)c(F)c1								347	
O=C(CN(Cc1ccc(C(=O)O)cc1)Cc1ccc(C(=O)O)cc1)NO								524	
